From patent US20240342176A1, “PHARMACEUTICAL COMBINATION AND APPLICATION THEREOF” (GUANGZHOU JOYO PHARMATECH CO., LTD, priority 2021, published 2024) come the findings set out here.

One may read the IC50 as the point on the concentration scale where inhibition reaches its midpoint.

Assay [1] relates to human Treg cells. Briefly: In vitro pharmacodynamic experiment on human Treg cells (flow cytometry CD4, CD25, Foxp3). In kind it is cell-based. The following applies: for IC50: Homo sapiens, 120 h, five days of compound incubation, CD4, CD25, Foxp3 positive counts vs DMSO control, read-out: IC50, inhibitory activity on human Treg cells. As for the experimental part:
• 1. Research purpose: The in vitro pharmacodynamic experiment of compound I on human Treg cells. • 2. […] Experimental methods: • 1) A 96-well cell culture plate was coated with 10 μg/mL anti-human CD3, 50 μL per well, incubated at 37° C. for three hours, and then rinsed with X-VIVO medium. • 2) Human peripheral blood mononuclear cells (purchased from Hemacare) were resuscitated and stained with CellTrace Violet (CTV). • 3) After staining, Human Naive CD4+ T cells were isolated using the Human naïve CD4 isolation kit. • 4) IL-2 (10 ng/ml), CD28 (2 μg/mL), and TGF-b (1 ng/mL) were added to the cell culture medium, and different concentrations of the test compounds were added at the same time. • 5) After five days of compound incubation, CD4, CD25, and Foxp3 were detected by flow cytometry. The positive counts of CD4, CD25, and Foxp3 were calculated, and the relative survival rate and IC50 were calculated compared with the DMSO control group. • 4. Experimental results: • The experiment used the flow cytometry method to determine the in vitro pharmacodynamic experiment of the test compound I on human Treg cells. The detection results are shown in A and B of FIG. 5 and Table 3.
For orientation: Flow cytometry measures light scatter and fluorescence of single cells or particles in a stream.

Assay [2] addresses PI3Kγ (Homo sapiens (Human), UniProt P48736). Nature of the assay: ADP-Glo chemiluminescence enzymatic activity assay, PI3Kγ. In kind it is biochemical. The note with it: mean ± SD, N = 3, ATP 25 μM. The method, then: (§1) • 1. Research purpose: The inhibitory effect of compound I on the enzymatic activity of PI3Kδ and PI3Kγ in vitro. • 2. Experimental materials: • (1) Main instrument: Envision (PerkinElmer-2104) • (2) Main reagents: ADP-Glo kinase kit (purchased from Promega), PI3Kδ (P1108/P85a) (purchased from Millipore), and PI3Kγ (P120γ) (purchased from Millipore). • 3. Experimental methods: • 1) Preparation of buffer salt solution: A 10× buffer salt solution with a pH of 7.5 containing 500 mM HEPES, 500 mM NaCl, and 30 mM MgCl2 was prepared with ultrapure water and stored at 4° C. for later use. Before use, the above buffer salt solution was diluted to a 3.33× buffer salt solution and BSA was added to a final concentration of 0.333 mg/mL. • 2) A 100× reference compound (compound I) was prepared with a starting concentration of 100 nM, diluted in a 3-fold serial dilution to 10 concentrations and transferred to the corresponding 384 microwell plate at 50 nL/well. In the control group, 50 nL/well of DMSO was added. • 3) 3.33×PI3K solutions were prepared with the 3.33× buffer salt solution, PI3Kδ at a final concentration of 0.25 nM, PI3Kγ at a final concentration of 0.4 nM. A 3.33×PIP2:3PS solution was prepared, mixed with the enzyme solutions at a volume ratio of 1:1, and added to the 384 microwell plate in 3 μL/well. […] The luminescence value was read using Envision. • 4. […]

For assay [3], the target named is PI3Kδ (Homo sapiens (Human), UniProt O00329). Nature of the assay: ADP-Glo chemiluminescence enzymatic activity assay, PI3Kδ. Type of assay: biochemical. The note with it: mean ± SD, N = 3, ATP 40 μM. The method, then:
as §1

Sequence of PI3Kγ (P48736 whole entry): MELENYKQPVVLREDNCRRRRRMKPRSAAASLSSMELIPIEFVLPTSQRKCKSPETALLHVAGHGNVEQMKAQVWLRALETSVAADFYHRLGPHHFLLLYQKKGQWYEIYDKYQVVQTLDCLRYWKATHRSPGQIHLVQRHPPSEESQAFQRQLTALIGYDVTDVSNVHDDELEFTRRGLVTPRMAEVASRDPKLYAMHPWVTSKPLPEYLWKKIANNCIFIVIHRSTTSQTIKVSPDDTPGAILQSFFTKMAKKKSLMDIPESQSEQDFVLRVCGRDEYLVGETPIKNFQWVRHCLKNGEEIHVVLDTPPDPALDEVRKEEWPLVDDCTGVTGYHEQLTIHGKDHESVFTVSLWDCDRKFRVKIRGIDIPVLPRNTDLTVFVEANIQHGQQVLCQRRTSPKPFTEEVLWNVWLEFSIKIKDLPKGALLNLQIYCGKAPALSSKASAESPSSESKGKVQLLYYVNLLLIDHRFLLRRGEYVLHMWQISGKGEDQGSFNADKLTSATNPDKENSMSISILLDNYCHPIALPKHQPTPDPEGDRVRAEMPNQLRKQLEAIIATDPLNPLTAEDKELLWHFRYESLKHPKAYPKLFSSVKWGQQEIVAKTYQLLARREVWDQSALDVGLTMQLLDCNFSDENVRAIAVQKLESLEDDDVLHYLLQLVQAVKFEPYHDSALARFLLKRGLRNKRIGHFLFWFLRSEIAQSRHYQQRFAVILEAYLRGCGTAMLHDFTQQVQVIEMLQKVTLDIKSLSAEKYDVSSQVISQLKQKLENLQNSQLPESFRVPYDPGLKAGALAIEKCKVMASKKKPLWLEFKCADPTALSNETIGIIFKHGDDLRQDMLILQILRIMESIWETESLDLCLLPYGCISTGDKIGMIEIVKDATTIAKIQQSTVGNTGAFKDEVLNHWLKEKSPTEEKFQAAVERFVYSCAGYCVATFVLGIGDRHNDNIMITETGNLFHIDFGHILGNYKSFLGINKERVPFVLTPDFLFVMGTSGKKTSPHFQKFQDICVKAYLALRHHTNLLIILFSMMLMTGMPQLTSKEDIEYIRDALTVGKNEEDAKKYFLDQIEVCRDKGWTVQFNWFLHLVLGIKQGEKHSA
Sequence of PI3Kδ (O00329 whole entry, looked up): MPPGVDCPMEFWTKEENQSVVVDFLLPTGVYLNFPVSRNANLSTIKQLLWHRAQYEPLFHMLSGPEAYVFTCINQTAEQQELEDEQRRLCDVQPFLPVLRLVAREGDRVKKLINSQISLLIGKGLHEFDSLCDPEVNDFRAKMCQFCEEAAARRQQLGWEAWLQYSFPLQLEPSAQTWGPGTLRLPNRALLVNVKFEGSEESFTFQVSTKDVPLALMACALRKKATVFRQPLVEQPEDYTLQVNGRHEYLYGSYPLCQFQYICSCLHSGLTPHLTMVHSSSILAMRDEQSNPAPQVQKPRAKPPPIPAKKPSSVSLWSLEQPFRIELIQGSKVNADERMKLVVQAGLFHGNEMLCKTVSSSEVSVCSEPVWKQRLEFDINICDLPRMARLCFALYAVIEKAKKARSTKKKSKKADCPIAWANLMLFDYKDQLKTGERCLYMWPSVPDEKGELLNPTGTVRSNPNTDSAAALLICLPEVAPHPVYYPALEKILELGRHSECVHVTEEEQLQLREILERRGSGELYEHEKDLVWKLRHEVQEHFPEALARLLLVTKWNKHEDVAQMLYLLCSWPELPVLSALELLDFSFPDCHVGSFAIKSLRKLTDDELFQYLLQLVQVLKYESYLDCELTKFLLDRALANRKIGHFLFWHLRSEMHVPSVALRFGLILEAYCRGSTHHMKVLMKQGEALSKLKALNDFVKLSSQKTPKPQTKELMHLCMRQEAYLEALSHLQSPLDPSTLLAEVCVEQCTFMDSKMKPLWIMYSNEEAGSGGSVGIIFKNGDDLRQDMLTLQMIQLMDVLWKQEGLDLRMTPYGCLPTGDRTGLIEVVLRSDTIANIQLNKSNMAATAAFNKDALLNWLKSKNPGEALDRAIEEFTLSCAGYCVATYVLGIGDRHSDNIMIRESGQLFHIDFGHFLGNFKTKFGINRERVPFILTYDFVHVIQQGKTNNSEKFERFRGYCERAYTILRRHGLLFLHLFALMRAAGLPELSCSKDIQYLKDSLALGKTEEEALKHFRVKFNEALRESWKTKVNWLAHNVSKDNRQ
Sequence of PI3Kδ (P27986 whole entry partner, looked up): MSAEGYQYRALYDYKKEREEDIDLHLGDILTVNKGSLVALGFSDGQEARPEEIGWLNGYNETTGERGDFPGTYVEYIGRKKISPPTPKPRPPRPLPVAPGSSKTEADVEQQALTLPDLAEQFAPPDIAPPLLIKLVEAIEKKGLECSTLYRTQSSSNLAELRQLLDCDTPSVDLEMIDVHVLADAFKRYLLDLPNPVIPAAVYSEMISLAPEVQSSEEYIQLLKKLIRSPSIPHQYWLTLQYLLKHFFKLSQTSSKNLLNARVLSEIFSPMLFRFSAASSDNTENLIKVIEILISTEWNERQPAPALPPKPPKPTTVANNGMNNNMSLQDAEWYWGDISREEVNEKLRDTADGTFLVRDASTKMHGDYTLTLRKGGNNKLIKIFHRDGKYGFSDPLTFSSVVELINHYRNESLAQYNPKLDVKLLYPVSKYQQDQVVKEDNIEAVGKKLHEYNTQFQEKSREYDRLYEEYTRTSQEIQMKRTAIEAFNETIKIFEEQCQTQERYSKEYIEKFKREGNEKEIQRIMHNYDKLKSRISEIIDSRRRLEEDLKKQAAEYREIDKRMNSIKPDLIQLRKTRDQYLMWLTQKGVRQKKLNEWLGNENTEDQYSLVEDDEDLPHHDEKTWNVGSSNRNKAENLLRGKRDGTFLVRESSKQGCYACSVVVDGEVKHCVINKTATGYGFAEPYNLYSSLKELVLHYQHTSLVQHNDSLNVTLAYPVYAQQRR

For `CC[C@H](Nc1ncnc2[nH]cnc12)c1nc2cccc(F)c2c(=O)n1-c1ccccc1` [Idelalisib, reference compound], the IC50 in assay [1] was 31.7 nM.

Consider `COCCOc1cnc2ccc(-c3cnc(OC)c(NS(=O)(=O)c4sc(C)nc4C)c3)cn2c1=O` [Compound I], for which the figures for the IC50 in assay [1], in assay [2] and in assay [3] were 0.01 nM, 0.29 ± 0.02 nM and 0.18 ± 0.01 nM, respectively. Further, the “inhibitory activity on human Treg cells relative to Idelalisib” value in assay [1] (ratio of IC50 values) was 3172 times.
